pIC50: −log10 of the molar value.
How the values were obtained:
[1] = target: T1, Alpha-mannosidase (Canavalia ensiformis) (UniProt C0HJB3); assay: Inhibition of jack bean alpha-mannosidase assessed as reduction of p-nitrophenol release using p-nitrophenyl-glycoside as substrate at 1000 uM by spectrophotometric analysis
T1 sequence (whole entry): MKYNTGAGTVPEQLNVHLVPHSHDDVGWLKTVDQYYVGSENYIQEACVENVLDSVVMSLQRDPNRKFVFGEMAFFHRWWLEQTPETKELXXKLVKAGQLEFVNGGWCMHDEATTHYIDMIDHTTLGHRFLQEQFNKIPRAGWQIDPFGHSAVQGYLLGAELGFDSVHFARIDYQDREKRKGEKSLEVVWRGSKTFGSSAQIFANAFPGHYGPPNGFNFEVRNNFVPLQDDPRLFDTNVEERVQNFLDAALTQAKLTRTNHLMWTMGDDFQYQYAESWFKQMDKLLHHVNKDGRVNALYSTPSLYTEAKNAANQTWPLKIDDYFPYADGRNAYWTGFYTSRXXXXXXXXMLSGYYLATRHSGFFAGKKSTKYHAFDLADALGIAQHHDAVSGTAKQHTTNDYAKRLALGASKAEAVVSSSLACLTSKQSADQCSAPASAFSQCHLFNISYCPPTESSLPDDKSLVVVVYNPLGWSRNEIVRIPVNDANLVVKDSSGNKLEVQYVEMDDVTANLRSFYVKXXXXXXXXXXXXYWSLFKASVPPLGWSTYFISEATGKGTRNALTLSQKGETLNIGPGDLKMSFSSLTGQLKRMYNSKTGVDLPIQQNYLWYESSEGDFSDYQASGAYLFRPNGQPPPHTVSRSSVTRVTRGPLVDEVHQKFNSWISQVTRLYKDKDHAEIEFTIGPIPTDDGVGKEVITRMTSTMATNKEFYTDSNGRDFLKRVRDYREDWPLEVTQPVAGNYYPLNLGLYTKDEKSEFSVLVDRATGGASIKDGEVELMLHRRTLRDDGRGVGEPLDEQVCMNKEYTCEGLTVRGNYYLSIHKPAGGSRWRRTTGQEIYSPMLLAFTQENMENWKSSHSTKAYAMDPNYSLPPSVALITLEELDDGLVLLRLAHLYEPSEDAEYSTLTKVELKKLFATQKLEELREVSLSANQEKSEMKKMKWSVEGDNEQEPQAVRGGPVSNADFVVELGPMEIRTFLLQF

[2] = target: Lysosomal alpha-glucosidase (Rattus norvegicus) (UniProt Q6P7A9); assay: Inhibition of rat small intestinal maltase assessed as reduction of D-glucose release using maltose as substrate at 1000 uM by colorimetric analysis; type: tissue-based; conditions: Small intestine
Lysosomal alpha-glucosidase (Rattus norvegicus), sequence (Q6P7A9 whole entry): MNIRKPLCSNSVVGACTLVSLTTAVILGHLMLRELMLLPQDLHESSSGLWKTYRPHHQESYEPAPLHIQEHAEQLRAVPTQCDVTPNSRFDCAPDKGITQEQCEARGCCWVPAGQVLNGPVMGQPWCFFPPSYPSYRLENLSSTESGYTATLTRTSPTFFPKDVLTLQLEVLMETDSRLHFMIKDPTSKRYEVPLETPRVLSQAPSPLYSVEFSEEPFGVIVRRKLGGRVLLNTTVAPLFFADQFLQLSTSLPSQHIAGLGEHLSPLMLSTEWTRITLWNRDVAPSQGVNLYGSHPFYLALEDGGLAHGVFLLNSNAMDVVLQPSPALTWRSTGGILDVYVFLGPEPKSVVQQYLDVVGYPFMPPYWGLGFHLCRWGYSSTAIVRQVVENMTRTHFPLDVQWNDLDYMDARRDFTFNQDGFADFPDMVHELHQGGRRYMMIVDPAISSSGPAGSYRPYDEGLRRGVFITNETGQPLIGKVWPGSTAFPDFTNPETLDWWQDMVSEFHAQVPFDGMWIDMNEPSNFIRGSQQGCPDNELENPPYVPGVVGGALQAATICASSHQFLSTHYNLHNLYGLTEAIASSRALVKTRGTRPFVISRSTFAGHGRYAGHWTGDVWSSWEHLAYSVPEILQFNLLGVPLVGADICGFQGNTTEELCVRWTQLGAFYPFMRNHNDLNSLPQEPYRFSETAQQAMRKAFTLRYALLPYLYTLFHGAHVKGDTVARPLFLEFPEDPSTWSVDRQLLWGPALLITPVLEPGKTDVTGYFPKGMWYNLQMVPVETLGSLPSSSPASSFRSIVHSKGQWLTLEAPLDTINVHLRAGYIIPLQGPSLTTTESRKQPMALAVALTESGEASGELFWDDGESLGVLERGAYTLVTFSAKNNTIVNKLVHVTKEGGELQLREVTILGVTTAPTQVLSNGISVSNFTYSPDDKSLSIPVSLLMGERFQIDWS

[3] = Inhibition of almond beta-glucosidase assessed as reduction of p-nitrophenol release using p-nitrophenyl-glycoside as substrate by spectrophotometric analysis; parameters: species or system Prunus dulcis
[4] = species on record: Sus scrofa; assay: Inhibition of porcine kidney alpha-trehalase assessed as reduction of p-nitrophenol release using p-nitrophenyl-glycoside as substrate at 1000 uM by spectrophotometric analysis; type: tissue-based
[5] = tested on: Aspergillus niger; assay: Inhibition of Aspergillus niger amyloglucosidase assessed as reduction of p-nitrophenol release using p-nitrophenyl-glycoside as substrate at 1000 uM by spectrophotometric analysis
[6] = tested on: Penicillium decumbens; assay: Inhibition of Penicillium decumbens alpha-L-rhamnosidase assessed as reduction of p-nitrophenol release using p-nitrophenyl-glycoside as substrate at 1000 uM by spectrophotometric analysis
[7] = target: Lysosomal alpha-glucosidase (Homo sapiens) (UniProt P10253); assay: Inhibition of human lysosomal alpha-glucosidase assessed as reduction of p-nitrophenol release using p-nitrophenyl-glycoside as substrate at 1000 uM by spectrophotometric analysis; conditions: Lysosome
[8] = tested on: Oryza sativa; assay: Inhibition of rice alpha-glucosidase assessed as reduction of p-nitrophenol release using p-nitrophenyl-glycoside as substrate at 1000 uM by spectrophotometric analysis
[9] = tested on: Saccharomyces cerevisiae; assay: Inhibition of yeast alpha-glucosidase assessed as reduction of p-nitrophenol release using p-nitrophenyl-glycoside as substrate at 1000 uM by spectrophotometric analysis
[10] = target: Alpha-galactosidase (Coffea arabica) (UniProt Q42656); assay: Inhibition of coffee beans alpha-galactosidase assessed as reduction of p-nitrophenol release using p-nitrophenyl-glycoside as substrate at 1000 uM by spectrophotometric analysis
Alpha-galactosidase (Coffea arabica), sequence (Q42656 16-378 limits assumed): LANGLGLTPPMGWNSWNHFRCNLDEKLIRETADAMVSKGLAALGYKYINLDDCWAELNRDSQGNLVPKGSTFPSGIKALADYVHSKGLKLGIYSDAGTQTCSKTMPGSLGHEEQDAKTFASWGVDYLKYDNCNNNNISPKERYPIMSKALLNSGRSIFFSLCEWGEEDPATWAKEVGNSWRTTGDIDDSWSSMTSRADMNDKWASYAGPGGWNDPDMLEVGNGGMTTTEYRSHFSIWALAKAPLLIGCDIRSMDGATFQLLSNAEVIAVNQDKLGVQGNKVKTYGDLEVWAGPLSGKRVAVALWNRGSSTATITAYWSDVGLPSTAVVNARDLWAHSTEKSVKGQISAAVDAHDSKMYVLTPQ

[11] = Inhibition of human lysosomal beta-glucosidase assessed as reduction of p-nitrophenol release using p-nitrophenyl-glycoside as substrate by spectrophotometric analysis; type: subcellular, Lysosome
[12] = target: T2, Tissue alpha-L-fucosidase (Bos taurus) (UniProt Q2KIM0); assay: Inhibition of bovine kidney alpha-L-fucosidase assessed as reduction of p-nitrophenol release using p-nitrophenyl-glycoside as substrate at 1000 uM by spectrophotometric analysis; type: tissue-based
T2 sequence (whole entry): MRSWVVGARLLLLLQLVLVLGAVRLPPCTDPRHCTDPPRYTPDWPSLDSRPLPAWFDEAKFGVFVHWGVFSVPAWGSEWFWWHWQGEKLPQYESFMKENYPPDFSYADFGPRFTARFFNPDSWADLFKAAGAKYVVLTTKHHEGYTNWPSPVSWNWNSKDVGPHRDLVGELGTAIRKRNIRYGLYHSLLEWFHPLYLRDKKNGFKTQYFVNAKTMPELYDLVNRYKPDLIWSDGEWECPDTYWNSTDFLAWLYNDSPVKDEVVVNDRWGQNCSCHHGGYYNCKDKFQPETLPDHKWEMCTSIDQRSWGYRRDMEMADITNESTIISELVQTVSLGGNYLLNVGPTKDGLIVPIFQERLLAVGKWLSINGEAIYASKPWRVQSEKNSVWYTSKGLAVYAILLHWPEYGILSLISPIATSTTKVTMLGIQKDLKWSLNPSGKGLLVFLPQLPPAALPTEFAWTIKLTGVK

[13] = tested on: Helix pomatia; assay: Inhibition of snail beta-mannosidase assessed as reduction of p-nitrophenol release using p-nitrophenyl-glycoside as substrate at 1000 uM by spectrophotometric analysis
[14] = Inhibition of Escherichia coli beta-glucuronidase assessed as reduction of p-nitrophenol release using p-nitrophenyl-glycoside as substrate by spectrophotometric analysis
[15] = species on record: Bos taurus; assay: Inhibition of bovine liver beta-glucuronidase assessed as reduction of p-nitrophenol release using p-nitrophenyl-glycoside as substrate at 1000 uM by spectrophotometric analysis
[16] = target: Sucrase-isomaltase, intestinal (Rattus norvegicus) (UniProt P23739); assay: Inhibition of rat small intestinal sucrase assessed as reduction of p-nitrophenol release using p-nitrophenyl-glycoside as substrate at 1000 uM by spectrophotometric analysis; type: tissue-based; conditions: Small intestine
Sucrase-isomaltase, intestinal (Rattus norvegicus), sequence (P23739 1-1013 limits assumed): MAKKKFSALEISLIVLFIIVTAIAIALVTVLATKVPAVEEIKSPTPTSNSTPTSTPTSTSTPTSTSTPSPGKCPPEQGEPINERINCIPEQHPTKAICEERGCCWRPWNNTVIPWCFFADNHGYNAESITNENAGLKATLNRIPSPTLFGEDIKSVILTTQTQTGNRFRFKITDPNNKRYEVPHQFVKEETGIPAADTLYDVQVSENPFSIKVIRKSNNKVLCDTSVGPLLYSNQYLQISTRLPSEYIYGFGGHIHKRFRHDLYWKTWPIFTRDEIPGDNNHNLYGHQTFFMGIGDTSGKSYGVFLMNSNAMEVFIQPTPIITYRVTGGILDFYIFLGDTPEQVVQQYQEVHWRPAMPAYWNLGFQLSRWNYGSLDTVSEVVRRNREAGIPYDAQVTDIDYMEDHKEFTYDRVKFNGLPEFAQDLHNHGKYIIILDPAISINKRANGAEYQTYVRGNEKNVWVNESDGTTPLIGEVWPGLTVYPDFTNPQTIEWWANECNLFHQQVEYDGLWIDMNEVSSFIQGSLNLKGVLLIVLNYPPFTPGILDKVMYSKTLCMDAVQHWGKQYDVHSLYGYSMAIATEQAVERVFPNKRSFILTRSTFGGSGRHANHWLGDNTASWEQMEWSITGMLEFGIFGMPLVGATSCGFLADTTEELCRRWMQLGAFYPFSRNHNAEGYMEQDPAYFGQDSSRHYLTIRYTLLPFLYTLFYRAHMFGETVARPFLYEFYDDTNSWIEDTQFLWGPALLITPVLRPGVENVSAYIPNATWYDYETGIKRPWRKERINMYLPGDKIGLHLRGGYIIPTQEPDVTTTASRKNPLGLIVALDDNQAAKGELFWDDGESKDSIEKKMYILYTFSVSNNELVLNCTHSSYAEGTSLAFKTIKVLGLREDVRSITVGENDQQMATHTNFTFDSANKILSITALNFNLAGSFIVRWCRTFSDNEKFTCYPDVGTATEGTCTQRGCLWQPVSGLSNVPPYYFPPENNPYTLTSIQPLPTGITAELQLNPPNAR
Sucrase-isomaltase, intestinal (Rattus norvegicus), sequence (P23739 1014-1841 limits assumed): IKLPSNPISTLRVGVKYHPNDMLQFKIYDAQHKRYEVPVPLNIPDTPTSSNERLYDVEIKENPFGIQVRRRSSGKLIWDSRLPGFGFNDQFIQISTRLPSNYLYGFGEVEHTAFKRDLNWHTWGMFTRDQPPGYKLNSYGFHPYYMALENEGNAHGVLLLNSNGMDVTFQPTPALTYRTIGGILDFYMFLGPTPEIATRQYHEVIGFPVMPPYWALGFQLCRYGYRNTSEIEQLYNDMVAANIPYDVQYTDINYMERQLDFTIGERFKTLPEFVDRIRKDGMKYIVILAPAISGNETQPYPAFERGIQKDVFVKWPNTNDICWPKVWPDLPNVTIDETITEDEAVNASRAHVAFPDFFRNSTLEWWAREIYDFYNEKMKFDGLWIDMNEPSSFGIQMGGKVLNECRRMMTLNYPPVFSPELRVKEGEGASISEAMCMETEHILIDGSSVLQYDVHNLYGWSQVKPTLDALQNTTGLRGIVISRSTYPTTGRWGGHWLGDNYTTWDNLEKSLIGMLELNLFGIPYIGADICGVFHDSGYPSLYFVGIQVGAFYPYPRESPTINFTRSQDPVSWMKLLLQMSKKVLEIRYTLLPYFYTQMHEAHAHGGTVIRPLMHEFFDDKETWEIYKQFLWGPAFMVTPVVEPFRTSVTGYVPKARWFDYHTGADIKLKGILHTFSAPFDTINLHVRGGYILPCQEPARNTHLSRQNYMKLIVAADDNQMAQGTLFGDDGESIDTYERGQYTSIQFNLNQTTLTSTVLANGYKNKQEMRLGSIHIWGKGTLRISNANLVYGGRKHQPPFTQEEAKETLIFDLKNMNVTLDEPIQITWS

[17] = Inhibition of bovine liver beta-galactosidase assessed as reduction of p-nitrophenol release using p-nitrophenyl-glycoside as substrate by spectrophotometric analysis; parameters: species or system Bos taurus
[18] = species on record: Bos taurus; assay: Inhibition of bovine liver beta-glucosidase assessed as reduction of p-nitrophenol release using p-nitrophenyl-glycoside as substrate at 1000 uM by spectrophotometric analysis
[19] = target: Sucrase-isomaltase, intestinal (Rattus norvegicus, UniProt P23739); assay: Inhibition of rat small intestinal sucrase assessed as reduction of p-nitrophenol release using p-nitrophenyl-glycoside as substrate by spectrophotometric analysis; type: tissue-based, Small intestine
Sucrase-isomaltase, intestinal, sequence (P23739 1-1013 limits assumed): as the sequence (P23739 1-1013 limits assumed) above
Sucrase-isomaltase, intestinal, sequence (P23739 1014-1841 limits assumed): as the sequence (P23739 1014-1841 limits assumed) above

[20] = Inhibition of Penicillium decumbens alpha-L-rhamnosidase assessed as reduction of p-nitrophenol release using p-nitrophenyl-glycoside as substrate by spectrophotometric analysis
[21] = tested on: Escherichia coli; assay: Inhibition of Escherichia coli beta-glucuronidase assessed as reduction of p-nitrophenol release using p-nitrophenyl-glycoside as substrate at 1000 uM by spectrophotometric analysis
[22] = tested on: Prunus dulcis; assay: Inhibition of almond beta-glucosidase assessed as reduction of p-nitrophenol release using p-nitrophenyl-glycoside as substrate at 1000 uM by spectrophotometric analysis
[23] = target: T3, Lysosomal acid glucosylceramidase (Homo sapiens, UniProt P04062); assay: Inhibition of human GCase assessed as reduction of 4-methylumbelliferone liberation using 4-methylumbelliferyl-beta-glucopyranoside as substrate preincubated with enzyme for 10 mins followed by substrate addition by fluorescence spectrophotometry
T3 sequence (P04062 whole entry): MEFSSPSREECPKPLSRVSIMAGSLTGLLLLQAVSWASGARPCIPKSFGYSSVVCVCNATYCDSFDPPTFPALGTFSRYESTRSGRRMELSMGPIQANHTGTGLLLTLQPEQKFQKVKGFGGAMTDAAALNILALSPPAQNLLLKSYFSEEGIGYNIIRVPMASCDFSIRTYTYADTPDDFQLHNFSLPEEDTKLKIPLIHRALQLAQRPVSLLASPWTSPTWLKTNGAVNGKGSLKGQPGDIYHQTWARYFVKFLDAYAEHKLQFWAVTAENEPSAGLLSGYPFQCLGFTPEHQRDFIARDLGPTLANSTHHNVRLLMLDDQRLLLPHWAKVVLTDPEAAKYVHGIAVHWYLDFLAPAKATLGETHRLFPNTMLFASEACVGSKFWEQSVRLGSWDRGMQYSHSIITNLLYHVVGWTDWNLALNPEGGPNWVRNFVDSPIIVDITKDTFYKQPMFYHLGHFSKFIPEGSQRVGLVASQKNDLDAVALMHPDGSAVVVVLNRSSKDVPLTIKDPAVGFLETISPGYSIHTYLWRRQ

[24] = Inhibition of bovine liver beta-glucosidase assessed as reduction of p-nitrophenol release using p-nitrophenyl-glycoside as substrate by spectrophotometric analysis; type: tissue-based, Bos taurus
[25] = Inhibition of rice alpha-glucosidase assessed as reduction of p-nitrophenol release using p-nitrophenyl-glycoside as substrate by spectrophotometric analysis; parameters: species or system Oryza sativa
[26] = species on record: Bos taurus; assay: Inhibition of bovine liver beta-galactosidase assessed as reduction of p-nitrophenol release using p-nitrophenyl-glycoside as substrate at 1000 uM by spectrophotometric analysis
[27] = Inhibition of Aspergillus niger amyloglucosidase assessed as reduction of p-nitrophenol release using p-nitrophenyl-glycoside as substrate by spectrophotometric analysis
[28] = Inhibition of yeast alpha-glucosidase assessed as reduction of p-nitrophenol release using p-nitrophenyl-glycoside as substrate by spectrophotometric analysis; parameters: species or system Saccharomyces cerevisiae
[29] = Inhibition of porcine kidney alpha-trehalase assessed as reduction of p-nitrophenol release using p-nitrophenyl-glycoside as substrate by spectrophotometric analysis; type: tissue-based, Sus scrofa
[30] = species on record: Homo sapiens; assay: Inhibition of human lysosomal beta-glucosidase assessed as reduction of p-nitrophenol release using p-nitrophenyl-glycoside as substrate at 1000 uM by spectrophotometric analysis; type: subcellular; conditions: Lysosome

Row | SMILES | inhibition [1] [%] | inhibition [2] [%] | pIC50 [3] | inhibition [4] [%] | inhibition [5] [%] | inhibition [6] [%] | inhibition [7] [%] | inhibition [8] [%] | inhibition [9] [%] | inhibition [10] [%] | pIC50 [11] | inhibition [12] [%] | inhibition [13] [%] | inhibition [15] [%] | pIC50 [17] | inhibition [18] [%] | inhibition [21] [%] | inhibition [22] [%] | pIC50 [25] | other results
1 | O[C@H]1[C@H](CCCc2ccccc2)NC[C@@H]1O | 11.5 | – | – | 0 | 0 | – | 27.8 | 42.9 | 30 | 0 | 5.02 | 0 | 5.2 | 0.3 | 3.18 | 35 | 42.7 | 48.8 | – | pIC50 [19]: 3.75; pIC50 [20]: 3.88
2 | CCCCN1C[C@H](CO)[C@@H](O)[C@H](O)C1 | – | – | – | – | – | – | – | – | – | – | – | – | – | – | – | – | – | – | – | pIC50 [23]: 4.36
3 | O[C@H]1[C@H](O)CN[C@@H]1c1ccccc1 | 8.3 | 12.4 | – | 6.1 | 2 | 0.5 | 29 | – | 0.3 | 8.6 | 4.96 | 0 | 10.1 | 15 | 3.36 | 43.7 | 20.3 | 3.9 | 3.33 | inhibition [16]: 39.9%
4 | OC[C@H]1NC[C@@H](O)[C@@H]1O | – | – | 3.01 | – | – | 13.5 | – | – | – | 4.1 | 3.47 | 9 | 13 | 6.3 | – | 7.9 | 5.3 | – | 4.06 | inhibition [26]: 11.4%; pIC50 [27]: 3.45; pIC50 [28]: 5.60; pIC50 [29]: 4.96
5 | OC[C@@H]1NCC(O)C1O (single isomer, unassigned) | 0 | – | – | – | 25.6 | 1.3 | – | – | – | 3.9 | – | 13.3 | 0.5 | 6.3 | – | 4.6 | 8 | 32.6 | 5.72 | inhibition [26]: 8.3%; inhibition [30]: 16.1%; pIC50 [28]: 3.79; pIC50 [29]: 3.79

Continued, in another order:

Row | inhibition [1] [%] | inhibition [2] [%] | pIC50 [3] | inhibition [4] [%] | inhibition [5] [%] | inhibition [6] [%] | inhibition [7] [%] | inhibition [8] [%] | inhibition [9] [%] | inhibition [10] [%] | pIC50 [11] | inhibition [12] [%] | inhibition [13] [%] | inhibition [15] [%] | pIC50 [17] | inhibition [18] [%] | inhibition [21] [%] | inhibition [22] [%] | pIC50 [25] | SMILES | other results
6 | 0 | 15.8 | 3.55 | 13.1 | 0 | 0 | 2.9 | 19 | 10.1 | 0 | 6.12 | 0 | 9.7 | 2.3 | 3.48 | 39.9 | – | – | – | O[C@H]1[C@H](O)CN[C@@H]1c1ccc(-c2ccccc2)cc1 | pIC50 [14]: 3.55; inhibition [16]: 47.4%
7 | 0 | 28.8 | 3.63 | 1.6 | 0 | 6.4 | 15.6 | 10.3 | 4.7 | 0.3 | 5.92 | 0 | 14.9 | 4.2 | 4.08 | – | – | – | – | O[C@@H]1[C@@H](O)CN[C@H]1c1ccc(-c2ccccc2)cc1 | pIC50 [24]: 3.34; pIC50 [19]: 3.24; pIC50 [14]: 3.38
